Consider eleven compounds from patent US9777002B2, “Inhibitors of the renal outer medullary potassium channel” (Merck Sharp & Dohme Corp., priority 2012, dated 2017).

Each structure is given as a SMILES string.

The assay deals with T1, hROMK (hKir1.1) (Homo sapiens, UniProt P48048).
T1 construct: expressed in transfected cells
T1 sequence (P48048 1-391): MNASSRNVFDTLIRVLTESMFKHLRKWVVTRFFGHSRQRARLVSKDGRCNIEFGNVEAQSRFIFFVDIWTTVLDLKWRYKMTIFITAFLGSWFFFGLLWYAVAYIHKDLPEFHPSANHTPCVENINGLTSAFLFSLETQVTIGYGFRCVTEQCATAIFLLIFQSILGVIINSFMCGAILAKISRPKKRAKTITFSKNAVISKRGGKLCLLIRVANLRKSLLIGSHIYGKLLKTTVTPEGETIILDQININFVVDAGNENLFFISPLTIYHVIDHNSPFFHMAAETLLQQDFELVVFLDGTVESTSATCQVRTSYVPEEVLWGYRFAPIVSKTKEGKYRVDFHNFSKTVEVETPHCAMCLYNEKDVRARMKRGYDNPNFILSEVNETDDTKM
Kind of assay: Thallium Flux Assay. As to conditions: HEK293 cells stably expressing hROMK (hKir1.1). It is filed as cell-based. The method in brief:
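HEK293 cells stably expressing hROMK were loaded with FluxOR dye for 90 min, then incubated with compound in probenecid assay buffer plus 0.3 mM ouabain, pH 7.4, for 30 min at 23-25 °C. Flux was triggered with 3 mM thallium/0.3 mM potassium (final) and read on FLIPR-Tetra for ~10 min. IC50 was calculated against the signal blocked by 3 μM control inhibitor.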

One may read the IC50 as the concentration needed to halve the response being measured. A low value points to greater potency. Take `Cc1c([C@@H](O)CN2CCC(NC(=O)c3ccc(-n4cnnn4)cn3)CC2)ccc2c1COC2=O` [Example 53, (R)-N-(1-(2-Hydroxy-2-(4-methyl-1-oxo-1,3-dihydroisobenzofuran-5-yl)ethyl)piperidin-4-yl)-5-(1H-tetrazol-1-yl)picolinamide]: inhibition was half-maximal at 190 nM (IC50). This counts as sub-micromolar.
The same measure for `Cc1c([C@@H](O)CN2CCC3(CC2)CCN3C(=O)c2ccc(-n3cnnn3)cn2)ccc2c1COC2=O` [Example 55, (R)-5-(2-(1-(5-(1H-Tetrazol-1-yl)picolinoyl)-1,7-diazaspiro[3.5]nonan-7-yl)-1-hydroxyethyl)-4-methylisobenzofuran-1(3H)-one]: 530 nM; for `Cc1c([C@@H](O)CN2CC3C(C2)C3NC(=O)c2ccc(-n3cnnn3)cn2)ccc2c1COC2=O` (stereo partly drawn) [Example 56, N-(3-((R)-2-Hydroxy-2-(4-methyl-1-oxo-1,3-dihydroisobenzofuran-5-yl)ethyl)-3-azabicyclo[3.1.0]hexan-6-yl)-5-(1H-tetrazol-1-yl)picolinamide]: 710 nM; for `COc1cc(C(=O)NC2CCN(C[C@H](O)c3ccc4c(c3C)COC4=O)CC2)ccc1C#N` [Example 57, (R)-4-Cyano-N-(1-(2-hydroxy-2-(4-methyl-1-oxo-1,3-dihydroisobenzofuran-5-yl)ethyl)piperidin-4-yl)-3-methoxybenzamide]: 320 nM.
For the compound `Cc1cc(C(=O)NC2CCN(C[C@H](O)c3ccc4c(c3C)COC4=O)CC2)ncc1-n1cnnn1` [Example 59, (R)-N-(1-(2-Hydroxy-2-(4-methyl-1-oxo-1,3-dihydroisobenzofuran-5-yl)ethyl)piperidin-4-yl)-4-methyl-5-(1H-tetrazol-1-yl)picolinamide], the IC50 stood at 90 nM.
The same measure for `Cc1c([C@@H](O)CN2CCC(C)(NC(=O)c3ccc(-n4cnnn4)cn3)CC2)ccc2c1COC2=O` [Example 60, (R)-N-(1-(2-Hydroxy-2-(4-methyl-1-oxo-1,3-dihydroisobenzofuran-5-yl)ethyl)-4-methylpiperidin-4-yl)-5-(1H-tetrazol-1-yl)picolinamide]: 180 nM.
The compound `Cc1c([C@@H](O)CN2CC[C@H](NC(=O)c3ccc(-n4cnnn4)cn3)C2)ccc2c1COC2=O` [Example 61, N-((S)-1-((R)-2-Hydroxy-2-(4-methyl-1-oxo-1,3-dihydroisobenzofuran-5-yl)ethyl)pyrrolidin-3-yl)-5-(1H-tetrazol-1-yl)picolinamide] registered an IC50 of 230 nM. The IC50 values of the last two compounds are within 1.5-fold of each other.
Next, `Cc1c([C@@H](O)CN2CC[C@@H](NC(=O)c3ccc(-n4cnnn4)cn3)C2)ccc2c1COC2=O` [Example 62, N-((R)-1-((R)-2-Hydroxy-2-(4-methyl-1-oxo-1,3-dihydroisobenzofuran-5-yl)ethyl)pyrrolidin-3-yl)-5-(1H-tetrazol-1-yl)picolinamide]: 370 nM.
The same measure for `Cc1cc(C(=O)NC2(C)CCN(C[C@H](O)c3ccc4c(c3C)COC4=O)CC2)ncc1-n1cnnn1` [Example 63, (R)-N-(1-(2-Hydroxy-2-(4-methyl-1-oxo-1,3-dihydroisobenzofuran-5-yl)ethyl)-4-methylpiperidin-4-yl)-4-methyl-5-(1H-tetrazol-1-yl)picolinamide]: 860 nM; for `Cc1c([C@@H](O)CN2CCC(NC(=O)c3cnc(-n4cnnn4)cn3)CC2)ccc2c1COC2=O` [Example 64, (R)-N-(1-(2-Hydroxy-2-(4-methyl-1-oxo-1,3-dihydroisobenzofuran-5-yl)ethyl)piperidin-4-yl)-5-(1H-tetrazol-1-yl)pyrazine-2-carboxamide]: 470 nM; for `Cc1c([C@@H](O)CN2CCC(NC(=O)c3ccc(-n4cnnn4)nn3)CC2)ccc2c1COC2=O` [Example 65, (R)-N-(1-(2-Hydroxy-2-(4-methyl-1-oxo-1,3-dihydroisobenzofuran-5-yl)ethyl)piperidin-4-yl)-6-(1H-tetrazol-1-yl)pyridazine-3-carboxamide]: 110 nM.
